Legend:
[1] = target: recombinant KMT9 (C21orf127/TRMT112) (Homo sapiens (Human), UniProt Q9Y5N5); experiment: Histone H4 methylation assay with SAM[3H], autoradiography; format: biochemical; conditions: histone H4, SAM[3H]
Protocol: FIG. 1 C21orf127/TRMT112 methylates histone H4 at K12. (A to C) Methylation assays. (A) Histone H4, H3, H2A, H2B, and H1 were incubated with SAM[^3H] in the absence or presence of recombinant C21orf127/TRMT112. (B) Wild-type or mutant histone H4 were incubated with SAM[3H] in the presence of recombinant C21orf127/TRMT112. Proteins were stained by Ponceau red. […] (C) Histone H4 was incubated with C21orf127/TRMT112, SAM[^3H], and the SAM competitive inhibitor sinefungin as indicated. Proteins were stained by Ponceau red.
FIG. 9. […] Histone H4 (2 μg) was incubated with SAM[3H] in the presence of recombinant KMT9 (KMT9α and KMT90) and the three afore-mentioned inhibitors as indicated.
It was tested in this example whether the known DOT1L-inhibitors EPZ5676, SGC0946 and EPZ004777 (which are commercially available) are capable of inhibiting KMT9. To this aim, histone H4 was incubated with SAM[^3H] in the presence of recombinant KMT9 (provided in the form of the heterodimer of KMT9α and KMT90) and the three afore-mentioned inhibitors.
Four to eight μg of purified recombinant His-C21orf127, His-C21orf127/TRMT112, His-C21orf127(D103A)/TRMT112, His-C21orf127(N122A)/TRMT112, His-C21orf127(Y125A)/TRMT112, His-TRMT112, WBSCR22/TRMT112, His-TRMT11, His-TRMT12, His-KIAA1456, His-TRMT5, His-METTL27, His-METTL21A and His-METTL21B were incubated either with 4 μg core histones or 2 μg of histones H4, H3, H2A, H2B, H1 (BPS Bioscience), histone H4K12A, or His-ETF1 as indicated in methylation buffer (10 mM Tris-HCl pH 7.6, 50 mM KCl, 10 mM Mg(OAc)2, 1 mM DTT) supplemented as indicated with 1.5 μM SAM or 1.5 μl of radioactively labelled [^3H]SAM for 60 min (METTL21A: 300 minutes, METTL21B: 18 h) at 30° C. For mass spectrometry analysis, 2 μg of histone H4 were incubated overnight with 2 μg of His-C21orf127/TRMT112 in presence of SAM, heavy SAM, or SAM/heavy SAM mixture. The reaction mixture was analysed by autoradiography, Western blotting, or mass spectrometry.

[2] = target: PRDM9 (Homo sapiens (Human), UniProt Q9NQV7); experiment: Methyltransferase panel, 10-dose IC50 mode; format: biochemical; conditions: Substrate: Histone H3; 1 μM SAM; read-out: Control IC50*
Protocol: (§1) Compound 72b was further tested against a plurality of methyltransferases as described in the following. […] Reactions were carried out at 1 μM SAM. Curve fits were performed where the enzyme activities at the highest concentration of compounds were less than 65%. […] Compound 72b is referred to as KMI9542321 in the table below.

[3] = target: ASH1L (Homo sapiens (Human), UniProt Q9NR48); experiment: Methyltransferase panel, 10-dose IC50 mode; format: biochemical; conditions: Substrate: Nucleosomes; 1 μM SAM; read-out: Control IC50*
Protocol: as §1

[4] = target: NSD3 (Homo sapiens (Human), UniProt Q9BZ95); experiment: Methyltransferase panel, 10-dose IC50 mode; format: biochemical; conditions: Substrate: Nucleosomes; 1 μM SAM; read-out: Control IC50*
Protocol: as §1

[5] = target: C21orf127 (Homo sapiens (Human), UniProt Q9Y5N5); experiment: Isothermal titration calorimetry (ITC) SAM binding; conditions: monomeric C21orf127
Protocol: (§2) ITC experiments were performed at 20° C. with a MicroCal VP-ITC microcalorimeter (Malvern). […] ITC data were analysed and fitted with one-site binding model by using Origin 7.0.

[6] = target: C21orf127(D103)/TRMT112 (Homo sapiens (Human), UniProt Q9Y5N5, D103A); experiment: Isothermal titration calorimetry (ITC) SAM binding; conditions: mutant heterodimer
Protocol: as §2

[7] = target: C21orf127/TRMT112 (Homo sapiens (Human), UniProt Q9Y5N5); experiment: Isothermal titration calorimetry (ITC) SAM binding; conditions: 20° C.
Protocol: as §2

[8] = target: TRMT112 (Homo sapiens (Human), UniProt Q9UI30); experiment: Isothermal titration calorimetry (ITC) SAM binding; conditions: monomeric TRMT112
Protocol: as §2

[9] = system: LNCaP prostate tumour cells; experiment: Cell proliferation, xCelligence RTCA; format: cell-based, human
Protocol: (§3) Compound 75b was tested in a proliferation assay in cell culture as described in the following. Thus, compound 75b (alternatively referred to as “KMI95423411”) was added to a final concentration of 30 μM (in the controls, DMSO as added) to cells of the following cell lines: LNCaP, SW-480, A549, MDA-MB-468 and HepG2, and the cells were cultured in the presence of inhibitor or DMSO. At the time points indicated in FIG. 15, the cells were seeded in E-plates and the cell proliferation was determined using the xCelligence RTCA system (Roche) as described below.
(§4) Cell proliferation, migration and invastion were determined using the X-Celligence RTCA system (Roche). pLenti-LacZ, pLenti-KMT9α, pLenti-KMT9α(N122A), pLenti-KMT9α(Y125A) pLenti-ETF1, pLenti-shLaZ, and pLenti-shKMT9α constructs were used to produce recombinant lentiviruses to infect LNCaP and PC-3M cells as described in Metzger et al., 2005. For real-time recording of LNCaP, LNCaP-abl, LNCaP-abl EnzaR, and C4-2B cell proliferation, 20000 cells/well were seeded in 16 well E-plates (Roche). For PC-3M, 2500 cells/well were used. For DuCaP EnzaR, LAPC4 and LAPC4 EnzaR, 40000 cells/well were used. Cells were transfected with the indicated siRNAs in presence of Dharmafect 1 (LNCaP-abl, LAPC4, LAPC4 EnzaR; Dharmacon), Dharmafect 2 (LNCaP, PC-3M), or RNAiMAx (C4-2B, LNCaP-abl EnzaR, DuCaP EnzaR; Caco-2, HT-29, SK-N-SH, SW620, SW480, HT-29, HT-115, HCT116 p53+/+ and HCT p53−/−; Life Technologies) 24 h before seeding in E-plates. Cell indices were automatically recorded every 15 minutes. Relative velocities represent the change of the cell index over time. The sequences of the siRNAs (Stealth RNAi™ siRNAs; Life Technologies) used in the experiments are as following: siCtrl: […]

[10] = system: SW-480 colorectal cancer cells; experiment: Cell proliferation, xCelligence RTCA; format: cell-based, human; conditions: final concentration of 30 μM, vs DMSO
Protocol: as §3, §4

[11] = system: HepG2 cells; experiment: Cell proliferation, xCelligence RTCA; format: cell-based; conditions: final concentration of 30 μM, vs DMSO; KMT9 non-responsive cells
Protocol: as §3, §4

[12] = system: MDA-MB-468 breast cancer cells; experiment: Cell proliferation, xCelligence RTCA; format: cell-based; conditions: final concentration of 30 μM, vs DMSO
Protocol: as §3, §4

[13] = system: A549 lung tumour cells; experiment: Cell proliferation, xCelligence RTCA; format: cell-based; conditions: final concentration of 30 μM, vs DMSO
Protocol: as §3, §4

[14] = target: SET8 (Homo sapiens (Human), UniProt Q9NQR1); experiment: Methyltransferase panel, 10-dose IC50 mode; format: biochemical; conditions: Substrate: Nucleosomes; 1 μM SAM; read-out: Control IC50*
Protocol: as §1

[15] = system: LNCaP xenograft tumours; experiment: Growth of xenograft tumours in NOD/SCID mice; format: in vivo; conditions: cells infected with lentivirus, subcutaneous, vs miRNA Ctrl
Source text: (§5) It was investigated whether KMT9α loss might affect tumour growth in mice. Therefore, PC-3M and LNCaP cells were infected with lentivirus driving expression of either miRNA control (miRNA Ctrl) or miRNA against KMT9α (miRNA KMT9α) and implanted subcutaneously in the flank of immunocompromised mice. […] To investigate whether knockdown of KMT9α also blocks growth of enzalutamide-resistant tumours, LAPC4 EnzaR miCtrl and miKMT9α cells were implanted subcutaneously in the flank of immunocompromised, castrated mice.
(§6) pLenti6-miRNA Control and pLenti6-miRNA KMT9α constructs were used to produce recombinant lentiviruses to infect LNCaP, PC-3M and LAPC4 EnzaR cells as described^26. Five-week-old male severe combined immunodeficient mice were purchased from Charles River Laboratories. For tumour inoculation 5×10^6 LNCaP, 2×10^6 PC-3M, and 5×10^6 LAPC4 EnzaR cells infected with pLenti6-miRNA Control or pLenti6-miRNA KMT9α constructs were injected in NOD/SCID mice, respectively. Mice were castrated one week before injection of LAPC4 EnzaR. Cells were resuspended in 100 μl RPMI1640 mixed with 100 μl Matrigel (BD Biosciences) on ice and administered subcutaneously in the flank of each animal. The tumour size was determined by calliper measurements two times a week^24. Tumour volumes were calculated using the formula 4/3×π×r3. All experiments were performed according to the German Animal Protection Law with permission from the responsible local authorities.

[16] = system: PC-3M xenograft tumours; experiment: Growth of xenograft tumours in NOD/SCID mice; format: in vivo; conditions: cells infected with lentivirus, subcutaneous, vs miRNA Ctrl
Source text: as §5, §6

[17] = system: LAPC4 EnzaR xenograft tumours; experiment: Growth of xenograft tumours in NOD/SCID mice; format: in vivo; conditions: castrated mice, subcutaneous, vs miCtrl
Source text: as §5, §6

Sequence of recombinant KMT9 (C21orf127/TRMT112) (Q9Y5N5 whole entry): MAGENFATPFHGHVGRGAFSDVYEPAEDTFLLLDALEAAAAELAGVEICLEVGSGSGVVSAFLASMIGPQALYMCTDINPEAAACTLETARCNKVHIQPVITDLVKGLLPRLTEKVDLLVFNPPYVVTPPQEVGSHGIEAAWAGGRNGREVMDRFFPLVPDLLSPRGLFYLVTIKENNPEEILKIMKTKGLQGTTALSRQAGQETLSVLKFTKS
Sequence of recombinant KMT9 (C21orf127/TRMT112) (Q9UI30 whole entry partner): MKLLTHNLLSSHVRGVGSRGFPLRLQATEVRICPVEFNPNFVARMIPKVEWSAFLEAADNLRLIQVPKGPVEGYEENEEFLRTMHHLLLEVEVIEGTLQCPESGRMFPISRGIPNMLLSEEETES
Sequence of C21orf127/TRMT112 (Q9Y5N5 whole entry): as the sequence (Q9Y5N5 whole entry) above
Sequence of C21orf127/TRMT112 (Q9UI30 whole entry partner): as the sequence (Q9UI30 whole entry partner) above
Sequence of C21orf127 (Q9Y5N5 whole entry): as the sequence (Q9Y5N5 whole entry) above
Sequence of NSD3 (Q9BZ95 whole entry): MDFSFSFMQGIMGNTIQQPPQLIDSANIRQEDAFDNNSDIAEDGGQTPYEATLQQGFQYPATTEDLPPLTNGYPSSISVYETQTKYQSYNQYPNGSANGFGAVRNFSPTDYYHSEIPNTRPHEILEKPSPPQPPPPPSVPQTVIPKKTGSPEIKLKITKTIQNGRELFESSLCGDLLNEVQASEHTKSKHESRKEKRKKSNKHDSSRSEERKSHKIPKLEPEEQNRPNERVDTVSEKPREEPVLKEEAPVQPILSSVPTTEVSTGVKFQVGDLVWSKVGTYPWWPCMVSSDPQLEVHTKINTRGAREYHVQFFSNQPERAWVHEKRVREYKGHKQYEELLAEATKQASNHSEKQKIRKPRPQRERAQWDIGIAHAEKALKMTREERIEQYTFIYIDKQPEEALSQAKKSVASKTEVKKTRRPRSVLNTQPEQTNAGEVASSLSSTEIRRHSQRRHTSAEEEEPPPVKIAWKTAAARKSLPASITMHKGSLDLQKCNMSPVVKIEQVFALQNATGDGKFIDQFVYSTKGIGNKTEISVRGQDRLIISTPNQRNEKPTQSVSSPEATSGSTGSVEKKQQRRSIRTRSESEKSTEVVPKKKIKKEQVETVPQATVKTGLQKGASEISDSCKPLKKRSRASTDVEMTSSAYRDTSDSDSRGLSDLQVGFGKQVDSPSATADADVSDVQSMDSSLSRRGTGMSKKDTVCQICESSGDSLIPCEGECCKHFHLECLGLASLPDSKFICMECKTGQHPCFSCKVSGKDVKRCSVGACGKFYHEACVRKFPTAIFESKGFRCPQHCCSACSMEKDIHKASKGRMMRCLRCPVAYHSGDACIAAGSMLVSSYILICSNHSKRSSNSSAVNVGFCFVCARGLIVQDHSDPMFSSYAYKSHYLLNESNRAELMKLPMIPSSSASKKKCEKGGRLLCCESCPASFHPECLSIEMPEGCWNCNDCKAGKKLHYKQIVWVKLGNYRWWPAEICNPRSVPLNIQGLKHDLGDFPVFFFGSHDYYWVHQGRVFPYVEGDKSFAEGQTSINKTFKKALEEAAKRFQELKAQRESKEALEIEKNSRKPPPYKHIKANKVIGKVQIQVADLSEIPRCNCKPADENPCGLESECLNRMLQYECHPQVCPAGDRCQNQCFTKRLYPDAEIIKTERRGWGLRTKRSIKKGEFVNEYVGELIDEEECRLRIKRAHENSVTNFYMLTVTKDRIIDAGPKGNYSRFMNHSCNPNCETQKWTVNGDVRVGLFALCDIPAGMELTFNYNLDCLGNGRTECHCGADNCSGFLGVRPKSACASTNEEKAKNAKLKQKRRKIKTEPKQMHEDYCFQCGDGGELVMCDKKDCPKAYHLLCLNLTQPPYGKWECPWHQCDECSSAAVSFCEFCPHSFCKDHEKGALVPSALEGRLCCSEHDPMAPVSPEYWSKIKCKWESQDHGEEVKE
Sequence of PRDM9 (Q9NQV7 whole entry): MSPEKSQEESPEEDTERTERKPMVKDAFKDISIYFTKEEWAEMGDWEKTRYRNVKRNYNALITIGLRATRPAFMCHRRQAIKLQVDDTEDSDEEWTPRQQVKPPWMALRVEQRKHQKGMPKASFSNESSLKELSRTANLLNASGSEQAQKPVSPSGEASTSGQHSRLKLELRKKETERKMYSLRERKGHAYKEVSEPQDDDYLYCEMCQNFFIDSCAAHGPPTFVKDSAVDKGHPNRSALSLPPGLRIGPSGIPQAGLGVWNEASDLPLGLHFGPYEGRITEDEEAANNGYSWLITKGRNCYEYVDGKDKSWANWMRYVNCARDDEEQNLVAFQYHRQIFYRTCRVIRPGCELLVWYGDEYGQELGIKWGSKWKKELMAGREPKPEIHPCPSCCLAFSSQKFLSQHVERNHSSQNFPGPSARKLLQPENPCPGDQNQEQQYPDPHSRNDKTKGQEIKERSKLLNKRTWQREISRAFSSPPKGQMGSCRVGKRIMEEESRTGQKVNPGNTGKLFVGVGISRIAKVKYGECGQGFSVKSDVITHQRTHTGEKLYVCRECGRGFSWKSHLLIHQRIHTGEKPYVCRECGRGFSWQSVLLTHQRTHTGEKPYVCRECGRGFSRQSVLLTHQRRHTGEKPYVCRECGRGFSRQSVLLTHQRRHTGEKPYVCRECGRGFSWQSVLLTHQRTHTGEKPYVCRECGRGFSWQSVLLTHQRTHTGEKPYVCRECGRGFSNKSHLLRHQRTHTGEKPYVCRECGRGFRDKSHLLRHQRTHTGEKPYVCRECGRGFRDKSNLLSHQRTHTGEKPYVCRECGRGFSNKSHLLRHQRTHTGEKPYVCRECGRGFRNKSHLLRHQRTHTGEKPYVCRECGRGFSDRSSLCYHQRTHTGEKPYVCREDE
Sequence of C21orf127(D103)/TRMT112 (Q9Y5N5 whole entry D103A): as the sequence (Q9Y5N5 whole entry) above, with D103A counted along it
Sequence of C21orf127(D103)/TRMT112 (Q9UI30 whole entry partner): as the sequence (Q9UI30 whole entry partner) above
Sequence of SET8 (Q9NQR1 whole entry): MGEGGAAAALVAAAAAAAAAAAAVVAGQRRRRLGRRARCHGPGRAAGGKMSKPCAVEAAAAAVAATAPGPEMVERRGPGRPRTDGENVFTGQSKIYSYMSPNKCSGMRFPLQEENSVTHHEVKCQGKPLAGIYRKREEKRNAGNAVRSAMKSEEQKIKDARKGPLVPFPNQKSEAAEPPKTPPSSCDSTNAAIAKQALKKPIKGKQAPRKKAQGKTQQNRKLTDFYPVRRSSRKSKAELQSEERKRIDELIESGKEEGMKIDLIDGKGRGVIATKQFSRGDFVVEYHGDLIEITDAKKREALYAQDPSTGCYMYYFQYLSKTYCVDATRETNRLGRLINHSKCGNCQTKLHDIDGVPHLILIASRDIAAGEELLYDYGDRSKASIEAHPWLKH
Sequence of TRMT112 (Q9UI30 whole entry): as the sequence (Q9UI30 whole entry partner) above

Nc1ncnc2c1ncn2[C@@H]1O[C@H](C[C@@H](N)CC[C@H](N)C(=O)O)[C@@H](O)[C@H]1O [sinefungin]
HMT activity of KMT9 (histone H4 methylation) [1]: blocked

CN1C(=O)[C@@]23C[C@]4([C@]56C[C@@]78SS[C@@](CO)(C(=O)N7[C@H]5Nc5ccccc56)N(C)C8=O)c5ccccc5N[C@@H]4N2C(=O)[C@]1(CO)SS3 [Chaetocin]
IC50 [2]: 354 nM | IC50 [3]: 27.4 nM | IC50 [4]: 58.8 nM

C[S+](CC[C@H](N)C(=O)[O-])C[C@H]1O[C@@H](n2cnc3c(N)ncnc32)[C@H](O)[C@@H]1O (stereo partly drawn) [SAM, S-adenosyl-methionine]
SAM binding [5]: no SAM binding | SAM binding [6]: no SAM binding | Kd [7]: 2500 nM | SAM binding [8]: no SAM binding

siKMT9α-3′UTR: siRNA that targets the three-prime untranslated region of the endogenously transcribed KMT9α mRNA (SEQ ID NO: 4) (GGAACUACAUUAGACUUAGUGGAAA; listed as RNA, chemistry not given here)
proliferation ([9]; LNCaP-LacZ control cells, vs siCtrl): strongly impaired

CC(C)N(C[C@H]1O[C@@H](n2cnc3c(N)ncnc32)[C@H](O)[C@@H]1O)[C@H]1C[C@@H](CCc2nc3cc(C(C)(C)C)ccc3[nH]2)C1 [EPZ5676]
HMT activity of KMT9 (histone H4 methylation) [1]: do not inhibit

CNc1ncnc2c1ccn2[C@@H]1C[C@H](CN(CCCNCCc2cccc(Oc3ccccc3)c2)CC[C@H](N)C(=O)OC)[C@@H](O)[C@H]1O [Compound 75b, methyl (S)-2-amino-4-((((1R,2R,3S,4R)-2,3-dihydroxy-4-(4-(methylamino)-7H-pyrrolo[2,3-d]pyrimidin-7-yl)cyclopentyl)methyl)(3-((3-phenoxyphenethyl)amino)propyl)amino)butanoate]
proliferation ([9]; final concentration of 30 μM, vs DMSO): blocks proliferation | proliferation [10]: blocks proliferation | proliferation [11]: does not affect proliferation | proliferation [12]: blocks proliferation | proliferation [13]: blocks proliferation

Cc1ccc(NC2=CC(=O)c3sc(C)nc3C2=O)cc1 [Ryuvidine]
IC50 [14]: 775 nM

CC(C)N(CCCNC(=O)Nc1ccc(C(C)(C)C)cc1)C[C@H]1O[C@@H](n2cc(Br)c3c(N)ncnc32)[C@H](O)[C@@H]1O [SGC0946]
HMT activity of KMT9 (histone H4 methylation) [1]: do not inhibit

CC(C)N(CCCNC(=O)Nc1ccc(C(C)(C)C)cc1)C[C@H]1O[C@@H](n2ccc3c(N)ncnc32)[C@H](O)[C@@H]1O [EPZ004777]
HMT activity of KMT9 (histone H4 methylation) [1]: do not inhibit

B1: miRNA KMT9α: miRNA against KMT9α expressed from lentivirus pLenti6-miRNA KMT9α (SEQ ID NO: 1, 2) (nucleic acid)
chain 1: TGCTGATGTGAACTTTGTTACAGCGTGTTTTGGCCACTGACTGACACGCTGTAAAAGTTCACAT
chain 2: CCTGATGTGAACTTTTACAGCGTGTCAGTCAGTGGCCAAAACACGCTGTAACAAAGTTCACATC
growth and final weight of xenografts [15]: strongly reduced | growth and final weight of xenografts [16]: strongly reduced | growth and final weight of xenografts [17]: strongly reduced

Source: patent US12357680B2, “Inhibition of histone methyl transferases to treat cancer” (Albert-Ludwigs-Universitat Freiburg, priority 2018, dated 2025)
